Publication PMC3984012 (Journal of Acquired Immune Deficiency Syndromes (1999), 2014)

What was measured:
[1] = cited from earlier work; for AUC8 previously reported / C8 previously reported: dosed alone, range; for Mean historical minimum plasma concentration (Cmin): historical data
P-gp = settings: cited from earlier work
CYP3A and OATP1B1 = settings: coadministered with atorvastatin; cited from earlier work
OATP1B1 = settings: read-out: OATP1B1 IC50; in vitro data; cited from earlier work
CYP3A = settings: oral coadministration of midazolam; cited from earlier work
[2] = Plasma BOC and TVR pharmacokinetics when coadministered with MVC; format: in vivo, human; settings: coadministered with MVC 150 mg BID
HIV-1 = settings: cited from earlier work

Compound	AUC8 previously reported [1] [ng·h/mL]	C8 previously reported [1] [ng/mL]	Mean historical minimum plasma concentration (Cmin) [1] [ng/mL]	Increase in AUC of digoxin (P-gp) [%]	Increase in AUC (exposure) of atorvastatin (CYP3A and OATP1B1) [fold]	IC50 (OATP1B1) [µM]	Increase in AUC of midazolam (CYP3A) [%]	Exposures when coadministered with MVC compared with historical data [2]	Cavg exposure at which near maximal virologic efficacy is achieved (HIV-1)
CCC[C@H](NC(=O)[C@@H]1[C@H]2CCC[C@H]2CN1C(=O)[C@@H](NC(=O)[C@@H](NC(=O)c1cnccn1)C1CCCCC1)C(C)(C)C)C(=O)C(=O)NC1CC1 [TVR, Telaprevir]	18157 to 22300	1505 to 2030	1802	85	7.88	2.2	796	consistent with historical data	
Maraviroc [MVC]									75–100 ng/mL
CC(C)(C)NC(=O)N[C@H](C(=O)N1C[C@H]2[C@@H]([C@H]1C(=O)NC(CC1CCC1)C(=O)C(N)=O)C2(C)C)C(C)(C)C (some centres unmarked) [BOC, Boceprevir]	4601 to 7070	88.5 to 111	102	19	2.30	18	430	consistent with historical data	
